Assay results reported in ChEMBL document CHEMBL5058564, “EUbOPEN Chemogenomics Library 2 (Incucyte)” (2022).

Experiments:
Assay type in all cases: toxicity, cell-based
HEK-293T = assay: Incucyte cell viability with HEK293T; details: human, 10 µM, compound concentration 10 uM
Fibroblast = assay: Incucyte cell viability with human fibroblast; details: 10 µM, compound concentration 10 uM
U2OS = assay: Incucyte cell viability with U2OS; details: human, 10 µM, compound concentration 10 uM
[1] = 0 h, replicate number 1, timepoint 0 hours
[2] = 0 h, replicate number 2, timepoint 0 hours
[3] = 12 h, replicate number 2, timepoint 12 hours
[4] = 18 h, replicate number 1, timepoint 18 hours
[5] = 18 h, replicate number 2, timepoint 18 hours
[6] = 24 h, replicate number 1, timepoint 24 hours
[7] = 24 h, replicate number 2, timepoint 24 hours
[8] = 6 h, replicate number 1, timepoint 6 hours
[9] = 6 h, replicate number 2, timepoint 6 hours
[10] = 12 h, replicate number 1, timepoint 12 hours
Further: unitless GR value; below 1 slowed growth and below 0 cell loss.

Structure (SMILES)	Growth Rate (HEK-293T; [1])	Growth Rate (HEK-293T; [2])	Growth Rate (HEK-293T; [3])	Growth Rate (HEK-293T; [4])	Growth Rate (HEK-293T; [5])	Growth Rate (HEK-293T; [6])	Growth Rate (HEK-293T; [7])	Growth Rate (Fibroblast; [1])	Growth Rate (Fibroblast; [8])	Growth Rate (Fibroblast; [9])	Growth Rate (U2OS; [1])	Growth Rate (U2OS; [2])	Growth Rate (U2OS; [8])	Growth Rate (U2OS; [3])	Growth Rate (U2OS; [4])	Growth Rate (U2OS; [5])	Growth Rate (U2OS; [7])	Growth Rate (Fibroblast; [2])	Growth Rate (HEK-293T; [10])	Growth Rate (U2OS; [6])	also measured
CNC(=O)[C@H]1O[C@@H](n2cnc3c(NCc4cccc(I)c4)ncnc32)[C@H](O)[C@@H]1O [IB-MECA]	0.11	0.3	1	0.64	0.98	0.64	0.83	0.22	0.12	-0.56	-0.65	-0.98	0.98	0.85	0.79	0.76	0.81				Growth Rate (Fibroblast; [10]): 0.45; Growth Rate (Fibroblast; [3]): 0.1; Growth Rate (Fibroblast; [4]): 0.7; Growth Rate (Fibroblast; [5]): 0.24; Growth Rate (Fibroblast; [6]): 0.54; Growth Rate (Fibroblast; [7]): 0.42; Growth Rate (U2OS; [9]): 0.82; Growth Rate (U2OS; [10]): 0.89
Cc1nnc2n1-c1sc(CCC(=O)N3CCOCC3)cc1C(c1ccccc1Cl)=NC2 [APAFANT]	0.99								0.26	0.74			0.99	0.88		0.75	0.93	0.77			Growth Rate (Fibroblast; [10]): 0.81; Growth Rate (Fibroblast; [3]): 0.51; Growth Rate (Fibroblast; [5]): 0.73; Growth Rate (Fibroblast; [7]): 0.95; Growth Rate (U2OS; [9]): 0.76
CCCCCCCC/C=C\CCCCCCCC(N)=O [OLEAMIDE]	0.61	0.35	0.99	0.89	0.94	0.96	1	0.63		0.82	0.24	0.51	0.78	0.79	0.76	0.89		0.02	0.8	0.98	Growth Rate (HEK-293T; [8]): 0.79; Growth Rate (U2OS; [9]): 1; Growth Rate (U2OS; [10]): 0.75
CCCN[C@H]1CCc2nc(N)sc2C1.Cl.Cl	0.73	0.77	0.53	0.97	0.77	0.93	0.81		-0.38	0.73		0.18		0.97		0.92		-0.13	0.99		Growth Rate (HEK-293T; [9]): 0.07; Growth Rate (Fibroblast; [10]): 0.31; Growth Rate (Fibroblast; [3]): 0.7; Growth Rate (Fibroblast; [4]): 0.84
CSc1cc2c(cc1C(F)(F)F)N(C(=O)Nc1cccnc1)CC2		-0.27		0.75		0.64		-0.3						0.94	0.84		0.93	0.46	0.63	0.99	Growth Rate (HEK-293T; [8]): 0.82
O=C(NCCNCC(O)COc1ccc(O)cc1)N1CCOCC1.O=C(NCCNCC(O)COc1ccc(O)cc1)N1CCOCC1.O=C(O)/C=C/C(=O)O (stereo not given) [XAMOTEROL FUMARATE]	0.82		0.95					-0.24			0.31	-1						-0.01			Growth Rate (HEK-293T; [9]): 0.64
Cc1ccccc1-c1cc(N2CCN(C)CC2)ncc1N(C)C(=O)C(C)(C)c1cc(C(F)(F)F)cc(C(F)(F)F)c1 [NETUPITANT]	0.83	0.7		0.72	0.92	0.5	0.86	-0.23	0.24		-0.52							0.68	0.84		Growth Rate (Fibroblast; [10]): 0.63; Growth Rate (Fibroblast; [3]): 0.31; Growth Rate (Fibroblast; [4]): 0.73; Growth Rate (Fibroblast; [5]): 0.71; Growth Rate (Fibroblast; [7]): 0.71
CN(C)CCCOc1ccc(-c2cc(NCCCn3cccn3)nc(S(C)(=O)=O)n2)cc1					0.97		0.97		0.86		0.2		0.22		0.71	0.82		0.56		0.85	Growth Rate (HEK-293T; [8]): 0.9; Growth Rate (Fibroblast; [6]): 0.96
CN[C@@H]1CCc2[nH]c3ccc(C(N)=O)cc3c2C1.O.O=C(O)CCC(=O)O [FROVATRIPTAN SUCCINATE]	-0.07	0.02			0.94	0.98	0.82		0.36		-0.34	0.89	0.73		0.74					0.63	Growth Rate (HEK-293T; [9]): 0.9; Growth Rate (Fibroblast; [4]): 0.81; Growth Rate (Fibroblast; [6]): 0.66; Growth Rate (U2OS; [10]): 0.48
CCC(=O)N1CC[C@H](Nc2ncnc3c2CN(c2cnc(OC)c(C(F)(F)F)c2)CC3)C1 [LENIOLISIB]			0.28	0.81	0.66	0.96	0.71		-0.68	0.91	0.57	0.52	0.65	0.58	0.83	0.79	0.79		0.69	0.81	Growth Rate (HEK-293T; [8]): 0.27; Growth Rate (HEK-293T; [9]): -0.14; Growth Rate (Fibroblast; [10]): 0.26; Growth Rate (Fibroblast; [4]): 0.75; Growth Rate (Fibroblast; [6]): 0.72; Growth Rate (U2OS; [9]): 0.66
C[C@H](NC(=O)CNC(=O)c1cccc(Cl)c1)c1ccccc1		0.84	0.96					0.45			-0.7			0.94		0.91	0.98	0.36			Growth Rate (U2OS; [9]): 0.8
CCCCC/C=C\C/C=C\C/C=C\C/C=C\CCCC(=O)OC(CO)CO [2-ARACHIDONOYLGLYCEROL]			0.51	0.64	0.69	0.67	0.75					0.65		0.9			0.99		0.72	0.81	Growth Rate (HEK-293T; [8]): 0.94; Growth Rate (Fibroblast; [6]): 0.93
